# Data taken from US20260265246A1 (ICAHN SCHOOL OF MEDICINE AT MOUNT SINAI, priority 2021, published 2026).
# Like-named read-outs stand apart in the source and are kept apart here.
# How the values were obtained:
# [1] = target: T1, 5HT2A receptor (Homo sapiens, UniProt P28223); experiment: cell-based; parameters: expressed in transfected cells; host or cells: HEK293T cells, transient co-transfection; conditions: for Emax: HEK-293T
# [2] = target: T1, 5HT2A receptor; experiment: cell-based; parameters: expressed in transfected cells; host or cells: HEK293T cells, transient co-transfection; conditions: for Emax: HEK-293T; remark: listed apart in the source
# [3] = target: T1, 5HT2A receptor; experiment: biochemical; format: binding; parameters: expressed in transfected cells; crude membranes
# [4] = 5HT2A β-Arr EC50 (nM), BRET1 beta-arrestin2 recruitment, HEK293T
# [5] = BRET1 beta-arrestin2 recruitment, HEK293T, normalized to 5-HT, read-out: 5HT2A β-Arr Emax (%)
# [6] = 5HTA Gq EC50 (nM), BRET2 Gαq dissociation, HEK293T
# [7] = BRET2 Gαq dissociation, HEK293T, normalized to 5-HT, read-out: 5HTA Gq Emax (%)
# [8] = 5HT2A Ki (nM), secondary binding assay, Cheng-Prusoff
# [9] = BRET1 beta-arrestin2 recruitment, HEK293T, read-out: 5HT2A β-Arr EC50
# [10] = BRET2 Gαq dissociation, HEK293T, read-out: 5HTA Gq EC50
# [11] = BRET1 beta-arrestin2 recruitment, HEK293T cells, read-out: 5HT2A β-Arr EC50
# [12] = BRET1 beta-arrestin2 recruitment, HEK293T cells, normalized to 5-HT, read-out: 5HT2A β-Arr Emax (%)
# [13] = BRET2 Gαq dissociation, HEK293T cells, read-out: 5HT2A Gq EC50
# [14] = BRET2 Gαq dissociation, HEK293T cells, normalized to 5-HT, read-out: 5HT2A Gq Emax (%)
# [15] = secondary radioligand binding, Ki from IC50 by Cheng-Prusoff, read-out: 5HT2A Ki
# [16] = 5HT2A β-Arr EC50 (nM), BRET1 beta-arrestin2 recruitment, HEK293T cells
# [17] = read-out: 5HT2A β-Arr Emax (%), BRET1 beta-arrestin2 recruitment, HEK293T, normalized to 5-HT
# [18] = read-out: 5HTA Gq Emax (%), BRET2 Gαq dissociation, HEK293T, normalized to 5-HT
# [19] = 5HT2A Gq EC50 (nM), BRET2 Gαq dissociation, HEK293T cells
# [20] = 5HT2A Ki (nM), secondary radioligand binding, Ki from IC50 by Cheng-Prusoff
# [21] = secondary binding assay, Cheng-Prusoff, read-out: 5HT2A Ki
# T1 sequence (P28223 whole entry): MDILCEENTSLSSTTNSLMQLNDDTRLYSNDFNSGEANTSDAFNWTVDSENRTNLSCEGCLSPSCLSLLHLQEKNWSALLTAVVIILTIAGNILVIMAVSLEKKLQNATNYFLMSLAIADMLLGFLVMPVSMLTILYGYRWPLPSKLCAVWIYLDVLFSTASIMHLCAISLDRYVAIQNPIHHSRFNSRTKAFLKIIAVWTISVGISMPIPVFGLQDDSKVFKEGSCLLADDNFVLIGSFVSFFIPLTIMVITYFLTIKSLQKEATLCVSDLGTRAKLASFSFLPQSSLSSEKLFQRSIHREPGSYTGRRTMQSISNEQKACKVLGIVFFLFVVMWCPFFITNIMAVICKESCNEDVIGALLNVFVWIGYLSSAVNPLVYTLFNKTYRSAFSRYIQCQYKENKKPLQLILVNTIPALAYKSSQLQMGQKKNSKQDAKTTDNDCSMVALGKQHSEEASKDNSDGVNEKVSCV
Structure (SMILES),"EC50 [1, 4]","Emax [1, 5]","EC50 [2, 6]","Emax [2, 7]","Ki [3, 8]","Emax [1, 12]","Emax [2, 14]","EC50 [1, 16]","Ki [3, 20]",also measured
"Cc1cccc2c(C34CNCC3C4)n[nH]c12 (stereo not shown) [Example 186, 3-(3-azabicyclo[3.1.0]hexan-1-yl)-7-methyl-1H-indazole]",481 nM,46.9%,231 nM,98.8%,748 nM,–,–,–,–,–
"Clc1cccc2c(C3=CCNC3)c[nH]c12 [Example 209, 7-chloro-3-(2,5-dihydro-1H-pyrrol-3-yl)-1H-indole]",–,88.1%,–,100%,160 nM,–,–,–,–,"EC50 [1, 9]: 60.7 nM; EC50 [2, 10]: 8.1 nM"
"CCN1CCC=C(c2c[nH]c3c(Cl)cccc23)C1 [Example 126, 7-chloro-3-(1-ethyl-1,2,5,6-tetrahydropyridin-3-yl)-1H-indole]",–,–,–,–,–,62.9%,96.6%,–,–,"EC50 [1, 11]: 74.9 nM; EC50 [2, 13]: 40.2 nM; Ki [3, 15]: 42.6 nM"
"Cc1cc(F)cc2c(C3=CCCN(C)C3)c[nH]c12 [Example 116, 5-fluoro-7-methyl-3-(1-methyl-1,2,5,6-tetrahydropyridin-3-yl)-1H-indole]",–,–,–,–,–,56.1%,125%,129 nM,–,"EC50 [2, 13]: 74 nM; Ki [3, 15]: 99.6 nM"
"CCCN1CCC=C(c2n[nH]c3c(CC)cccc23)C1 [Example 237, 7-ethyl-3-(1-propyl-1,2,5,6-tetrahydropyridin-3-yl)-1H-indazole]",1580 nM,39.8%,–,37.7%,389 nM,–,–,–,–,"EC50 [2, 10]: 33.6 nM"
"Cc1cc(F)cc2c(C34CNCC3C4)c[nH]c12 (stereo not shown) [Example 282, 3-(3-azabicyclo[3.1.0]hexan-1-yl)-5-fluoro-7-methyl-1H-indole]",1280 nM,–,165 nM,–,257 nM,–,–,–,–,"Emax [1, 17]: 44.8%; Emax [2, 18]: 96.8%"
"Cc1ccnc2[nH]cc(C3=CCCNC3)c12 [Example 9, 4-methyl-3-(1,2,5,6-tetrahydropyridin-3-yl)-1H-pyrrolo[2,3-b]pyridine]",–,–,–,–,–,72.8%,74.2%,749 nM,8510 nM,"EC50 [2, 19]: 489 nM"
"Cc1cccc2c(N3CCNCC3)n[nH]c12 [Example 230, 7-methyl-3-(piperazin-1-yl)-1H-indazole]",917 nM,45.3%,248 nM,66.1%,715 nM,–,–,–,–,–
"Cc1cccc2[nH]nc(C3=CCCNC3)c12 [Example 80, 4-methyl-3-(1,2,5,6-tetrahydropyridin-3-yl)-1H-indazole]",–,–,–,–,–,71.8%,83.4%,698 nM,254 nM,"EC50 [2, 13]: 73.8 nM"
"CN1CC=C(c2c[nH]c3c(Cl)cccc23)C1 [Example 210, 7-chloro-3-(1-methyl-2,5-dihydro-1H-pyrrol-3-yl)-1H-indole]",119 nM,33.6%,–,74.9%,–,–,–,–,–,"EC50 [2, 10]: 33.1 nM; Ki [3, 21]: 86.1 nM"
"CN1CCC=C(c2c[nH]c3nccc(F)c23)C1 [Example 117, 4-fluoro-3-(1-methyl-1,2,5,6-tetrahydropyridin-3-yl)-1H-pyrrolo[2,3-b]pyridine]",–,–,–,–,–,51.1%,110%,865 nM,1360 nM,"EC50 [2, 19]: 253 nM"
"Clc1cccc2c(C3CCCNC3)n[nH]c12 (stereo not shown) [Example 114, 7-chloro-3-(piperidin-3-yl)-1H-indazole]",–,–,–,–,–,–,–,468 nM,1240 nM,"Emax ([1]; read-out: 5HT2A β-Arr Emax (%), BRET1 beta-arrestin2 recruitment, HEK293T cells, normalized to 5-HT): 29.3%; EC50 [2, 19]: 290 nM; Emax ([2]; read-out: 5HT2A Gq Emax (%), BRET2 Gαq dissociation, HEK293T cells, normalized to 5-HT): 74.5%"
"FC(F)(F)CN1CCC=C(c2n[nH]c3c(Cl)cccc23)C1 [Example 152, 7-chloro-3-(1-(2,2,2-trifluoroethyl)-1,2,5,6-tetrahydropyridin-3-yl)-1H-indazole]",1050 nM,–,1570 nM,–,389 nM,–,–,–,–,"Emax [1, 17]: 66.5%; Emax [2, 18]: 89.8%"
"Fc1cc(Cl)c2[nH]nc(C3=CCCNC3)c2c1 [Example 129, 7-chloro-5-fluoro-3-(1,2,5,6-tetrahydropyridin-3-yl)-1H-indazole]",–,95%,–,88.8%,162 nM,–,–,–,–,"EC50 [1, 9]: 20.1 nM; EC50 [2, 10]: 3.1 nM"
"Clc1cccc2c(C3=CCCNC3)n[nH]c12 [Example 89, 7-chloro-3-(1,2,5,6-tetrahydropyridin-3-yl)-1H-indazole]",–,–,–,–,–,85.1%,93.7%,–,–,"EC50 [1, 11]: 83.5 nM; EC50 [2, 13]: 11.4 nM; Ki [3, 15]: 85.2 nM"
"CN1CCC=C(c2n[nH]c3ccc(F)cc23)C1 [Example 102, 5-fluoro-3-(1-methyl-1,2,5,6-tetrahydropyridin-3-yl)-1H-indazole]",–,–,–,–,–,79.8%,84.5%,129 nM,246 nM,"EC50 [2, 13]: 9 nM"
"CCc1cccc2c(C3=CCCNC3)n[nH]c12 [Example 121, 7-ethyl-3-(1,2,5,6-tetrahydropyridin-3-yl)-1H-indazole]",–,–,–,–,–,85.7%,103%,–,422 nM,"EC50 [1, 11]: 75.8 nM; EC50 [2, 13]: 20.2 nM"
"CN1CCC=C(c2c[nH]c3c(Cl)c(F)ccc23)C1 [Example 128, 7-chloro-6-fluoro-3-(1-methyl-1,2,5,6-tetrahydropyridin-3-yl)-1H-indole]",–,56.5%,–,89.2%,–,–,–,–,–,"EC50 [1, 9]: 66.1 nM; EC50 [2, 10]: 11.9 nM; Ki [3, 21]: 15.3 nM"
"CCN1CCC=C(c2n[nH]c3c(Cl)cccc23)C1 [Example 145, 7-chloro-3-(1-ethyl-1,2,5,6-tetrahydropyridin-3-yl)-1H-indazole]",–,42.4%,–,64.4%,123 nM,–,–,–,–,"EC50 [1, 9]: 77 nM; EC50 [2, 10]: 23.3 nM"
"Fc1cnc2[nH]cc(C3=CCCNC3)c2c1 [Example 120, 5-fluoro-3-(1,2,5,6-tetrahydropyridin-3-yl)-1H-pyrrolo[2,3-b]pyridine]",–,–,–,–,–,60.4%,100%,67.4 nM,53.6 nM,"EC50 [2, 19]: 21.5 nM"
"FC(F)CN1CCC=C(c2n[nH]c3c(Cl)cccc23)C1 [Example 153, 7-chloro-3-(1-(2,2-difluoroethyl)-1,2,5,6-tetrahydropyridin-3-yl)-1H-indazole]",1200 nM,77.4%,1240 nM,83.9%,634 nM,–,–,–,–,–
"FC(F)(F)CCN1CCC=C(c2n[nH]c3c(Cl)cccc23)C1 [Example 164, 7-chloro-3-(1-(3,3,3-trifluoropropyl)-1,2,5,6-tetrahydropyridin-3-yl)-1H-indazole]",836 nM,23.3%,518 nM,52.9%,> 10000 nM,–,–,–,–,–
"COC1(c2c[nH]c3c(Cl)cccc23)CNC1 [Example 254, 7-chloro-3-(3-methoxyazetidin-3-yl)-1H-indole]",1460 nM,77.6%,294 nM,88.3%,1080 nM,–,–,–,–,–
